Earlier results, collected in US9370492B2, “Solid pharmaceutical dosage forms comprising bisphosphonates and modified amino acid carriers” (EMISPHERE TECHNOLOGIES, INC., priority 2005, dated 2016).
Where a name gives a salt, the structure may show the parent alone.

- solubility in organic solvents (organic solvents): practically insoluble
- solubility in water (water): freely soluble
SMILES: CCCCCN(C)CCC(O)(P(=O)(O)O)P(=O)(O)O [Ibandronate sodium, 3-(N-methyl-N-pentyl)amino-1-hydroxypropane-1,1-diphosphonic acid, monosodium salt, monohydrate]
